± gives the expanded uncertainty stated by the source.
How the values were obtained:
[1] = xn = mol fraction of the nth substance listed; settings: 102 kPa, Liquid, Vibrating tube method
[2] = refractive index (Na D-line) (dimensionless); xn = mol fraction of the nth substance listed; settings: 102 kPa, Liquid, Standard Abbe refractometry

C[Si]1(CCC(F)(F)F)O[Si](C)(CCC(F)(F)F)O[Si](C)(CCC(F)(F)F)O1 (stereo not given) + O=[N+]([O-])c1ccccc1
Settings | mass density, 308.15 K [kg/m3] | mass density, 313.15 K [kg/m3] | mass density, 318.15 K [kg/m3] | mass density, 323.15 K [kg/m3] | refractive index, 308.15 K | refractive index, 313.15 K | refractive index, 318.15 K | refractive index, 323.15 K
[1], x1 = 0.05 | 1199.58 ± 1 | 1194.53 ± 1 | 1189.25 ± 1 | 1184.09 ± 1 | – | – | – | –
[1], x1 = 0.0999 | 1207.93 ± 1 | 1202.66 ± 1 | 1197.26 ± 1 | 1191.9 ± 1 | – | – | – | –
[1], x1 = 0.1499 | 1214.25 ± 1 | 1208.83 ± 1 | 1203.23 ± 1 | 1197.73 ± 1 | – | – | – | –
[1], x1 = 0.1919 | 1218.36 ± 1 | 1212.79 ± 1 | 1207.17 ± 1 | 1201.58 ± 1 | – | – | – | –
[1], x1 = 0.2499 | 1222.85 ± 1 | 1217.11 ± 1 | 1211.37 ± 1 | 1205.62 ± 1 | – | – | – | –
[1], x1 = 0.2999 | 1225.81 ± 1 | 1220.01 ± 1 | 1214.12 ± 1 | 1208.26 ± 1 | – | – | – | –
[1], x1 = 0.3501 | 1228.12 ± 1 | 1222.19 ± 1 | 1216.28 ± 1 | 1210.32 ± 1 | – | – | – | –
[1], x1 = 0.3999 | 1229.99 ± 1 | 1224 ± 1 | 1218.01 ± 1 | 1211.97 ± 1 | – | – | – | –
[1], x1 = 0.4499 | 1231.5 ± 1 | 1225.36 ± 1 | 1219.29 ± 1 | 1213.19 ± 1 | – | – | – | –
[1], x1 = 0.5008 | 1232.67 ± 1 | 1226.56 ± 1 | 1220.4 ± 1 | 1214.21 ± 1 | – | – | – | –
[1], x1 = 0.55 | 1233.65 ± 1 | 1227.39 ± 1 | 1221.21 ± 1 | 1215 ± 1 | – | – | – | –
[1], x1 = 0.6001 | 1234.37 ± 1 | 1228.07 ± 1 | 1221.84 ± 1 | 1215.54 ± 1 | – | – | – | –
[1], x1 = 0.6501 | 1234.9 ± 1 | 1228.58 ± 1 | 1222.33 ± 1 | 1216 ± 1 | – | – | – | –
[1], x1 = 0.6997 | 1235.32 ± 1 | 1229.04 ± 1 | 1222.69 ± 1 | 1216.31 ± 1 | – | – | – | –
[1], x1 = 0.75 | 1235.76 ± 1 | 1229.34 ± 1 | 1222.98 ± 1 | 1216.56 ± 1 | – | – | – | –
[1], x1 = 0.8002 | 1236.01 ± 1 | 1229.55 ± 1 | 1223.17 ± 1 | 1216.72 ± 1 | – | – | – | –
[1], x1 = 0.8498 | 1236.19 ± 1 | 1229.72 ± 1 | 1223.28 ± 1 | 1216.78 ± 1 | – | – | – | –
[1], x1 = 0.9002 | 1236.26 ± 1 | 1229.82 ± 1 | 1223.34 ± 1 | 1216.83 ± 1 | – | – | – | –
[1], x1 = 0.9492 | 1236.47 ± 1 | 1229.88 ± 1 | 1223.44 ± 1 | 1216.88 ± 1 | – | – | – | –
[1], x1 = 1 | 1236.63 ± 1 | 1230.05 ± 1 | 1223.55 ± 1 | 1216.99 ± 1 | – | – | – | –
[2], x1 = 0.05 | – | – | – | – | 1.51601 ± 0.00036 | 1.51362 ± 0.00036 | 1.51123 ± 0.00036 | 1.50882 ± 0.00036
[2], x1 = 0.0999 | – | – | – | – | 1.49288 ± 0.00036 | 1.49054 ± 0.00036 | 1.48816 ± 0.00036 | 1.48586 ± 0.00036
[2], x1 = 0.1499 | – | – | – | – | 1.47398 ± 0.00035 | 1.47168 ± 0.00035 | 1.46935 ± 0.00035 | 1.46705 ± 0.00035
[2], x1 = 0.1919 | – | – | – | – | 1.46058 ± 0.00035 | 1.4583 ± 0.00035 | 1.45605 ± 0.00035 | 1.45377 ± 0.00035
[2], x1 = 0.2499 | – | – | – | – | 1.44494 ± 0.00035 | 1.4427 ± 0.00035 | 1.44048 ± 0.00035 | 1.43827 ± 0.00035
[2], x1 = 0.2999 | – | – | – | – | 1.43355 ± 0.00035 | 1.43137 ± 0.00035 | 1.42916 ± 0.00035 | 1.42695 ± 0.00035
[2], x1 = 0.3501 | – | – | – | – | 1.42369 ± 0.00035 | 1.42151 ± 0.00035 | 1.41931 ± 0.00035 | 1.41713 ± 0.00035
[2], x1 = 0.3999 | – | – | – | – | 1.41513 ± 0.00035 | 1.41296 ± 0.00035 | 1.41082 ± 0.00035 | 1.40865 ± 0.00035
[2], x1 = 0.4499 | – | – | – | – | 1.40755 ± 0.00035 | 1.4054 ± 0.00035 | 1.40325 ± 0.00035 | 1.40109 ± 0.00035
[2], x1 = 0.5008 | – | – | – | – | 1.4007 ± 0.00035 | 1.39858 ± 0.00035 | 1.39644 ± 0.00035 | 1.39433 ± 0.00035
[2], x1 = 0.55 | – | – | – | – | 1.39478 ± 0.00035 | 1.3927 ± 0.00035 | 1.39053 ± 0.00035 | 1.38845 ± 0.00035
[2], x1 = 0.6001 | – | – | – | – | 1.38938 ± 0.00035 | 1.38728 ± 0.00035 | 1.38519 ± 0.00035 | 1.3831 ± 0.00035
[2], x1 = 0.6501 | – | – | – | – | 1.38448 ± 0.00035 | 1.38239 ± 0.00035 | 1.38032 ± 0.00035 | 1.37824 ± 0.00035
[2], x1 = 0.6997 | – | – | – | – | 1.38006 ± 0.00035 | 1.378 ± 0.00035 | 1.37594 ± 0.00035 | 1.37384 ± 0.00035
[2], x1 = 0.75 | – | – | – | – | 1.376 ± 0.00035 | 1.37391 ± 0.00035 | 1.37188 ± 0.00035 | 1.36984 ± 0.00035
[2], x1 = 0.8002 | – | – | – | – | 1.37227 ± 0.00035 | 1.37021 ± 0.00035 | 1.36817 ± 0.00035 | 1.36612 ± 0.00035
[2], x1 = 0.8498 | – | – | – | – | 1.36887 ± 0.00035 | 1.36681 ± 0.00035 | 1.36478 ± 0.00035 | 1.36274 ± 0.00035
[2], x1 = 0.9002 | – | – | – | – | 1.36567 ± 0.00035 | 1.36365 ± 0.00035 | 1.36163 ± 0.00035 | 1.35959 ± 0.00035
[2], x1 = 0.9492 | – | – | – | – | 1.36284 ± 0.00035 | 1.36084 ± 0.00035 | 1.35878 ± 0.00035 | 1.35679 ± 0.00035
[2], x1 = 1 | – | – | – | – | 1.36011 ± 0.00035 | 1.35808 ± 0.00035 | 1.35609 ± 0.00035 | 1.35407 ± 0.00035

From the NIST ThermoML archive (doi:10.1016/j.jct.2015.12.025)
